The text below walks through data of ChEMBL document CHEMBL1149032, “Two new cytotoxic peroxide-containing acids from a New Guinea sponge, Callyspongia sp” (1994).

For this test, the system named is P388. The experiment in a line: Cytotoxicity against mouse P388 cells. In kind it is functional. Conditions: read-out: ED50 (the source's name).

Converted amounts (≈) assume the structure as drawn.

`CCCCC1(CC)C[C@@H](CC)[C@H](CC(=O)O)OO1` (some centres not stated): the EC50 is 2.6 µg/mL (≈ 10.1 µM).
For `C/C=C1/C[C@](CC)(CCCC)OO[C@H]1CC(=O)O` the value was 5.5 µg/mL (≈ 21.5 µM).
